Patent US12129221B2, “Difluoro phenyl amide RIP1 inhibitor” (SIRONAX LTD, priority 2018, dated 2024)
Values belong to the compound of their own block, whether it stands above or below them.

Experiments:
[1] = Liver microsome stability, rat; assay type: in vitro ADME; details: liver microsomes
Description: (§1) Representative Metabolic Stability Data I; +, Extrapolated.

[2] = Liver microsome stability, mouse; assay type: in vitro ADME; details: liver microsomes
Description: as §1

[3] = Liver microsome stability, monkey; assay type: in vitro ADME; details: monkey, liver microsomes
Description: as §1

[4] = tested on: necrosis; test: Necrosis inhibitory activity (cell necrosis / cell viability assay); assay type: cell-based; details: Necrosis Inhibitory Activity, given as range; read-out: EC50
Description: Necrosis Inhibitory Activity
Representative IC50 of hRIP1 Kinase Assay Correlated with Our IC50 of Cell Necrosis Assay: […]

[5] = Liver microsome stability, dog; assay type: in vitro ADME; details: dog, liver microsomes
Description: as §1

[6] = Hepatocyte stability, rat; assay type: in vitro ADME; design: key to Rat T1/2 (min): +, Extrapolated; details: for Rat T1/2 (min): extrapolated; for half-life: rat, hepatocytes, read-out: Rat T1/2
Description: (§2) Representative Metabolic Stability Data II, +, Extrapolated.

[7] = Hepatocyte stability, dog; assay type: in vitro ADME; design: key to Dog T1/2 (min): +, Extrapolated; details: for Dog T1/2 (min): extrapolated; for half-life: dog, hepatocytes, read-out: Dog T1/2
Description: as §2

[8] = Liver microsome stability, human; assay type: in vitro ADME; details: liver microsomes, liver microsome stability, read-out: Human T1/2
Description: as §1

[9] = PK in rat; design: species or system SD rat; details: Sprague-Dawley, in vivo; for bioavailability / half-life: rat
Description: Representative PK Date of Pro-Drug Compounds

[10] = Hepatocyte stability, mini-pig; assay type: in vitro ADME; design: key to mini-pig T1/2 (min): +, Extrapolated; details: for mini-pig T1/2 (min): extrapolated
Description: as §2

[11] = tested on: ferroptosis; test: Ferroptosis inhibitor activity; assay type: cell-based; details: 1 uM threshold activity extrapolated
Description: Ferroptosis Inhibitor Activity 1 Um Threshold Activity Extrapolated

[12] = Liver microsome stability, mini-pig; assay type: in vitro ADME; design: key to mini-pig T1/2 (min): +, Extrapolated; details: for mini-pig T1/2 (min): extrapolated
Description: as §1

[13] = Hepatocyte stability, human; assay type: in vitro ADME; design: key to Human T1/2 (min): +, Extrapolated; details: for Human T1/2 (min): extrapolated; for half-life: human, hepatocytes, read-out: Human T1/2
Description: as §2

[14] = Hepatocyte stability, mouse; assay type: in vitro ADME; design: key to Mouse T1/2 (min): +, Extrapolated; details: for Mouse T1/2 (min): extrapolated; for half-life: mouse, hepatocytes, read-out: Mouse T1/2
Description: as §2

[15] = Hepatocyte stability, monkey; assay type: in vitro ADME; design: key to Monkey T1/2 (min): +, Extrapolated; details: for Monkey T1/2 (min): extrapolated; for half-life: monkey, hepatocytes, read-out: Monkey T1/2
Description: as §2

[16] = PK in monkey; details: in vivo
[17] = PK in mouse; details: in vivo
[18] = PK in dog; details: in vivo
[19] = tested on: HT-29; test: EC50 in HT-29; assay type: cell-based; details: Homo sapiens
[20] = liver microsome stability, read-out: Rat T1/2
[21] = liver microsome stability, read-out: Mouse T1/2
[22] = liver microsome stability, read-out: Monkey T1/2
[23] = liver microsome stability, read-out: Dog T1/2
[24] = po, 10 mg/kg, SD rat, PO 10 mg/kg
[25] = Hepatocyte Stability, comparison table

half-life [1, 20]: 19.8 min
half-life [2, 21]: 26.5 min
half-life [3, 22]: 0.6 min
half-life [5, 23]: 1.5 min
Rat T1/2 (min) ([6]; Hepatocyte stability): +
Dog T1/2 (min) ([7]; Hepatocyte stability): +
half-life [8]: 178 min
AUC ([9]; SD rat, PO 10 mg/kg): 78.6 ng·h/mL
bioavailability [9, 24]: 5.29%
half-life [9, 24]: 55.2 min
mini-pig T1/2 (min) [10]: +
EC50 [11]: 1000 to 10000 nM
mini-pig T1/2 (min) [12]: +
Human T1/2 (min) ([13]; Hepatocyte stability): +
Mouse T1/2 (min) ([14]; Hepatocyte stability): +
Monkey T1/2 (min) ([15]; Hepatocyte stability): +
Compound: [2H]CC([2H])C(C)(C)C(=O)N(O)Cc1ccccc1 (stereo not shown) [Compound 27, N-benzyl-N-hydroxy-2,2-dimethylbutanamide-3,4-d2]
EC50 [4]: 1 to 1000 nM

half-life [1, 20]: 28.6 min
half-life [2, 21]: 33.6 min
half-life [3, 22]: 3.3 min
half-life [5, 23]: 3.5 min
Rat T1/2 (min) ([6]; Hepatocyte stability): +
Dog T1/2 (min) ([7]; Hepatocyte stability): +
half-life [8]: 195 min
AUC ([9]; SD rat, PO 10 mg/kg): 318 ng·h/mL
bioavailability [9, 24]: 14.8%
half-life [9, 24]: 37 min
mini-pig T1/2 (min) [10]: +
EC50 [11]: 1000 to 10000 nM
mini-pig T1/2 (min) [12]: +
Human T1/2 (min) ([13]; Hepatocyte stability): +
Mouse T1/2 (min) ([14]; Hepatocyte stability): +
Monkey T1/2 (min) ([15]; Hepatocyte stability): +
Compound: [2H]C([2H])C([2H])([2H])C(C)(C)C(=O)N(O)Cc1ccccc1 [Compound 28, N-benzyl-N-hydroxy-2,2-dimethylbutanamide-3,3,4,4-d4]
EC50 [4]: 1 to 1000 nM

AUC(0-inf) ([16]; IV 2 mg/kg): 1940 ng·h/mL
clearance ([16]; IV 2 mg/kg): 17.6 mL/min/kg
half-life ([16]; IV 2 mg/kg): 46.2 min
Vd ([16]; IV 2 mg/kg, read-out: Vdss): 0.86 L/kg
AUC(0-inf) ([16]; PO 10 mg/kg): 374 ng·h/mL
Cmax ([16]; PO 10 mg/kg): 185 ng/mL
bioavailability ([16]; PO 10 mg/kg): 2.6%
half-life ([16]; PO 10 mg/kg): 43.8 min
half-life ([1]; comparison table with WO2016/101885 compounds, read-out: Rat Liver Microsome T1/2): 25 min
half-life [1, 20]: 25.1 min
half-life ([2]; comparison table with WO2016/101885 compounds, read-out: Mouse Liver Microsome T1/2): 32 min
half-life [2, 21]: 32.5 min
half-life ([3]; comparison table with WO2016/101885 compounds, read-out: Monkey Liver Microsome T1/2): 3 min
half-life [3, 22]: 2.95 min
half-life ([5]; comparison table with WO2016/101885 compounds, read-out: Dog Liver Microsome T1/2): 7 min
half-life [5, 23]: 7.1 min
half-life [6, 25]: 14 min
half-life ([6]; Hepatocyte stability): 14.2 min
half-life [7, 25]: 14 min
half-life ([7]; Hepatocyte stability): 13.9 min
AUC(0-inf) ([17]; IV 2 mg/kg): 323 ng·h/mL
clearance ([17]; IV 2 mg/kg): 103 mL/min/kg
half-life ([17]; IV 2 mg/kg): 186 min
Vd ([17]; IV 2 mg/kg, read-out: Vdss): 3.08 L/kg
AUC(0-inf) ([17]; PO 10 mg/kg): 349 ng·h/mL
Cmax ([17]; PO 10 mg/kg): 249 ng/mL
bioavailability ([17]; PO 10 mg/kg): 21.6%
half-life ([17]; PO 10 mg/kg): 96 min
half-life [8]: 204 min
AUC(0-inf) ([9]; Rat, IV 2 mg/kg): 520 ng·h/mL
clearance ([9]; Rat, IV 2 mg/kg): 64 mL/min/kg
Vd ([9]; Rat, IV 2 mg/kg, read-out: Vdss): 1.2 L/kg
AUC(0-inf) ([9]; Rat, PO 10 mg/kg): 214 ng·h/mL
Cmax ([9]; Rat, PO 10 mg/kg): 148 ng/mL
AUC ([9]; SD rat, PO 10 mg/kg): 29.9 ng·h/mL
half-life ([9]; iv, 2 mg/kg, IV 2 mg/kg): 18 min
bioavailability ([9]; po, 10 mg/kg, PO 10 mg/kg): 1.2%
half-life ([9]; po, 10 mg/kg, PO 10 mg/kg): 48 min
bioavailability [9, 24]: 1.15%
half-life [9, 24]: 38.4 min
half-life ([10]; minipig, hepatocytes, read-out: mini-pig T1/2): 23.1 min
half-life ([12]; minipig, liver microsomes, read-out: mini-pig T1/2): 53.5 min
AUC(0-inf) ([18]; IV 3 mg/kg): 1960 ng·h/mL
clearance ([18]; IV 3 mg/kg): 25.6 mL/min/kg
half-life ([18]; IV 3 mg/kg): 72 min
Vd ([18]; IV 3 mg/kg, read-out: Vdss): 1.24 L/kg
AUC(0-inf) ([18]; PO 10 mg/kg): 136 ng·h/mL
Cmax ([18]; PO 10 mg/kg): 171 ng/mL
bioavailability ([18]; PO 10 mg/kg): 1.95%
half-life ([18]; PO 10 mg/kg): 81 min
half-life [13, 25]: 73 min
half-life ([13]; Hepatocyte stability): 73.1 min
half-life [14, 25]: 24 min
half-life ([14]; Hepatocyte stability): 24.4 min
half-life [15, 25]: 19 min
half-life ([15]; Hepatocyte stability): 18.9 min
EC50 [19]: 25 nM
Compound: CCC(C)(C)C(=O)N(O)Cc1ccccc1 [Compound 92, reference compound]
